Measurements from patent US20050180954A1, “Drug for treating bone disorders” (priority 1995, published 2005).

How the values were obtained:
Type in all cases: cell-based, mouse
MC3T3-E1 cells [1] = assay: Mineralization of murine osteoblasts, Von Kossa stain (in vitro single administration); conditions: Day 14
Method: As the parameters for evaluation of differentiation ability, alkaline phosphatase (ALPase) and mineralization were employed. Detection of alkaline phosphatase which is a marker of differentiation of osteoblasts was carried out on Day 8 from the beginning of the culturing by staining method. Evaluation of mineralization was carried out as follows. That is, MC3T3-E1 cells were placed in each well of 24-well plates in an amount of 50,000 cells/ml (10 times in the case of anti-cell test in Example 3). On Day 4, after confirming that the cells sufficiently reached confluency, the medium was discarded and fresh α-MEM containing 10% JCS, 50 μg/ml of L-ascorbic acid and 10 mM β-glycerophosphate was added in an amount of 0.9 ml/well, followed by adding medium containing varying concentration of IFN. Four days later, the medium was replaced with IFN-free medium, and the medium was replaced with IFN-free medium every 4 days. On Day 14, Von Kossa stain was performed to visualize the calcified foci. Expression of alkaline phosphatase activity which is a differentiation marker is an indispensable step to the subsequent mineralization.

MC3T3-E1 cells [2] = assay: Proliferation of murine osteoblastic cells MC3T3-E1 (in vitro single administration); conditions: 10,000 units/ml; cell count on Day 6
Method: Murine osteoblast like cells MC3T3-E1 originated from C 57 BL/6 mouse (Kodama et al., Jap. J. Oral Biol., 23, 899, 1982) were washed with PBS(−) and the cells were dissociated by incubation in PBS(−) containing 0.1% pronase (Actinase E, Kaken Pharmaceuticals Co.), followed by dispersing the cells in α-MEM containing 10% JCS and 50 μg/ml of L-ascorbic acid (ASA). The ability to promote proliferation of cells was evaluated as follows. That is, MC3T3-E1 cells were placed in each well in 24-well plates (Corning) in an amount of 5000 cells/well. Then each IFN dilution was added to each well in an amount of 0.1 ml/well, and the culturing was begun. On Day 2, the medium was removed and the each IFN dilution was added in an amount of 0.5 ml/well (total amount of liquid: 0.5 ml/well). On Day 6, the medium was removed and the cells were washed with PBS(−) and a mixed enzyme solution of 0.1% pronase/0.1% collagenase was added to each well in an amount of 200 μl/well, followed by allowing to react at 37° C. for 15 minutes. Then α-MEM containing 10% fetal calf serum (Gibco, hereinafter referred to as “FCS” for short) was added in an amount of 300 μl/well to disperse the cells therein and the number of the cells was counted with a Coulter counter.

[3] = tested on: osteoclast like cells from bone marrow cells of mice of ddy strain; assay: Formation of osteoclast like cells from bone marrow cells of mice of ddy strain
Method: Bone marrow cells were prepared in accordance with the method by Takahashi et al (Takahashi, N. et al., Endocrinology, 122, 1373, 1988). Male mice of ddy strain of 7 weeks old were exanguinated to death under ether anesthesia and the femur and the tibia of hind legs were collected from each mouse. The connective tissues on the surfaces of the bones were carefully removed, and both ends of each bone were cut off with scissors. The bone marrow cells were suspended in α-Minimum Essential Medium (α-MEM, Nissui Pharmaceuticals Co.) containing 10% pre-colostrum new born calf serum (Mitsubishi Chemical, hereinafter referred to as “JCS” for short) and the suspension was flushed out through a 25 G needle attached to a syringe to collect the suspension in a centrifugal tube. The collected suspension was washed by centrifugation in the same medium at 2000 rpm at 4° C. for 5 minutes. The precipitated cells were dispersed in the above-mentioned medium and the washing by centrifugation was repeated twice, thereby preparing bone marrow cells. Murine IFN-α (hereinafter referred to as “MuIFNα” for short), Lot. B13010, 106 units/ml/vial (Calbiochem-Novabiochem International, San Diego, Calif.), murine IFN-β (hereinafter referred to as “MuIFNβ” for short), Lot M-0034, 10 units/ml/vial (Toray Industries, Inc.) and murine IFNγ (hereinafter referred to as “MuIFNγ” for short), Lot 254F3, 2.06×10^6 units/ml (Genentech, Calif.) were respectively dissolved in 10% JCS-containing α-MEM (Nissui Pharmaceuticals Co.) to the desired concentrations. Active vitamin D3 ([…], Wako Pure Chemical Industries, Ltd., hereinafter referred to as “Vit D3” for short) was dissolved in argon-saturated ethanol, and the obtained solution was diluted so as to attain the final ethanol concentration of 0.1% in all of the culture systems.
The number of viable bone marrow cells was counted using tripam blue dye exclusion test and the bone marrow cells were diluted with α-MEM containing 10% JCS, 10^−8M Vit D3, 10^−7 M dexamethasone to a population density of 1.5×10^6 cells/ml, followed by placing the resulting suspension in each well in 24-well plates in an amount of 0.45 ml/well. To each well, 50 μl of the medium containing varying concentration of IFN was added to make the volume to 0.5 ml/well and culturing was begun. At every three days, 0.4 ml of the culture medium was removed from each well and 0.4 ml of fresh medium (the above-mentioned medium containing the respective concentration of IFN) was added. On Day 8 from the beginning of the culturing, the medium was removed and the cells were fixed with mixed solution of ethyl alcohol and diethyl ether (1:1) and the cells were stained with tartrate resistant acid phosphatase (TRAP), followed by counting TRAP positive multinuclear cells with a phase contrast microscope. […] The inhibition effect of IFNγ was stronger than that of IFNβ. That is, the inhibition concentration IC50 of IFNγ was not more than 0.1 units/ml, and that of IFNβ was 0.2 units/ml.
The effects of the three murine IFNs, that is, MuIFNβ, γ and α in terms of abilities to inhibit formation of osteoclast like cells from bone marrow cells in mice of ddy strain were compared. The test was carried out as in Example 1. All of the murine IFNs inhibited the formation of osteoclast like cells, and the effect was strong in the order of γ, β and α. […] Thus, the activity of IFNα to inhibit formation of osteoclasts was about 1/20 of that of IFNβ and about not more than 1/100 of that of IFNγ.

## MuIFNβ: murine interferon β, Lot M-0034, prepared by Toray Industries, Inc. by genetic engineering technique
MC3T3-E1 cells [1]
  influence on mineralization (calcified foci, Von Kossa stain): mineralization proceeded without substantial influence
MC3T3-E1 cells [2]
  inhibition of proliferation of MC3T3-E1 cells: did not inhibit the proliferation at all
[3]; Example 1, Day 8, TRAP positive multinuclear cells
  inhibition of formation of osteoclast like cells: strongly inhibited formation of osteoclast like cells
[3]; Example 1, Vit D3 + dexamethasone, Day 8, TRAP positive multinuclear cells
  inhibition concentration IC50 of formation of osteoclast like cells: 0.2 units/ml
[3]; Example 8 comparison of three murine IFNs
  IC50 of inhibition of formation of osteoclast like cells: about 0.9 units/ml
